{"source": "ChEMBL document CHEMBL3044865", "about": "“Herbicidal Activity and Characteristics of Pyraflufen-ethyl for Controlling Broad-leaved Weeds in Cereals” (J Pestic Sci, 2002)", "key": {"Viola arvensis [1]": {"test_system": "Viola arvensis", "experiment": "Herbicidal activity against Viola arvensis assessed as killing at 5 g/ha measured after 21 days after treatment under greenhouse by time-course analysis", "type": "functional"}, "Viola arvensis [2]": {"test_system": "Viola arvensis", "experiment": "Ratio of compound ED90 to ioxynil ED90 for herbicidal activity against Viola arvensis"}, "Veronica hederifolia [3]": {"test_system": "Veronica hederifolia", "experiment": "Herbicidal activity against Veronica hederaefolia assessed as killing at 10 g/ha post emergence application measured after 21 days after treatment", "type": "functional"}, "Galium aparine [4]": {"test_system": "Galium aparine", "experiment": "Herbicidal activity against Galium aparine assessed as killing at 10 g/ha pre emergence application measured after 21 days after treatment", "type": "functional"}, "Alopecurus myosuroides [5]": {"test_system": "Alopecurus myosuroides", "experiment": "Herbicidal activity against Alopecurus myosuroides assessed as killing at 10 g/ha post emergence application measured after 21 days after treatment", "type": "functional"}, "Viola arvensis [6]": {"test_system": "Viola arvensis", "experiment": "Herbicidal activity against Viola arvensis assessed as killing at 300 g/ha post emergence application measured after 21 days after treatment", "type": "functional"}, "Stellaria media [7]": {"test_system": "Stellaria media", "experiment": "Herbicidal activity against Stellaria media assessed as killing at 1 g/ha post emergence application measured after 21 days after treatment", "type": "functional"}, "Avena fatua [8]": {"test_system": "Avena fatua", "experiment": "Herbicidal activity against Avena fatua assessed as killing at 10 g/ha post emergence application measured after 21 days after treatment", "type": "functional"}, "[9]": {"experiment": "Ratio of compound ED90 to […] ED90 for herbicidal activity against Matricaria inodora"}, "[10]": {"biological_target": "T1, Protoporphyrinogen oxidase 2 (Spinacia oleracea) (UniProt Q94IG7)", "T1 sequence (whole entry)": "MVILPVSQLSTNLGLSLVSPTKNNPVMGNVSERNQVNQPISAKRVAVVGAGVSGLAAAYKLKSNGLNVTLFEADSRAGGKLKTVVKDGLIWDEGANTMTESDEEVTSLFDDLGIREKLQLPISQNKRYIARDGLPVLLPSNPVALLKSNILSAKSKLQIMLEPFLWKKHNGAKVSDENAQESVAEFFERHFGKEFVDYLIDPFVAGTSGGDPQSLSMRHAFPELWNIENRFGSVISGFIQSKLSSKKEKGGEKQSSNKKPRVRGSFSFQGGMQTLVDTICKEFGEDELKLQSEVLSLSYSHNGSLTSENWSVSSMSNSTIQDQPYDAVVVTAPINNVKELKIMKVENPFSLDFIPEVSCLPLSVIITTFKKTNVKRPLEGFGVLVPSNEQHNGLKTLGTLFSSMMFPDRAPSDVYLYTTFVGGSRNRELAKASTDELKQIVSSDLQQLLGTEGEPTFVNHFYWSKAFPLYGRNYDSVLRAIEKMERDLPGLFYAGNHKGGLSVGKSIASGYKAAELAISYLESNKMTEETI", "experiment": "Inhibition of Stellaria media protoporphyinogen oxidase assessed as herbicidal activity at 0.3 g/ha measured after 21 days after treatment under greenhouse by time-course analysis", "design": "scale not given: the % may be the effect or the level left"}, "Veronica hederifolia [11]": {"test_system": "Veronica hederifolia", "experiment": "Herbicidal activity against Veronica hederaefolia assessed as killing at 0.3 g/ha post emergence application measured after 21 days after treatment", "type": "functional"}, "Triticum aestivum [12]": {"test_system": "Triticum aestivum", "experiment": "Phytotoxicity in Triticum aestivum (wheat) assessed as injury at 0.3 g/ha post emergence application measured after 21 days after treatment", "type": "organism-based", "details": "in vivo, other, 504 h"}, "Alopecurus myosuroides [13]": {"test_system": "Alopecurus myosuroides", "experiment": "Herbicidal activity against Alopecurus myosuroides assessed as killing at 1 g/ha post emergence application measured after 21 days after treatment", "type": "functional, organism-based"}, "Stellaria media [14]": {"test_system": "Stellaria media", "experiment": "Herbicidal activity against Stellaria media assessed as killing at 10 g/ha post emergence application measured after 21 days after treatment", "type": "functional"}, "Stellaria media [15]": {"test_system": "Stellaria media", "experiment": "Ratio of compound ED90 to ioxynil ED90 for herbicidal activity against Stellaria media"}, "Galium aparine [16]": {"test_system": "Galium aparine", "experiment": "Herbicidal activity against Galium aparine assessed as killing at 30 g/ha post emergence application measured after 21 days after treatment", "type": "functional"}, "Viola arvensis [17]": {"test_system": "Viola arvensis", "experiment": "Herbicidal activity against Viola arvensis assessed as killing at 0.3 g/ha post emergence application measured after 21 days after treatment", "type": "functional"}, "Viola arvensis [18]": {"test_system": "Viola arvensis", "experiment": "Herbicidal activity against Viola arvensis assessed as killing at 100 g/ha post emergence application measured after 21 days after treatment", "type": "functional"}, "Avena fatua [19]": {"test_system": "Avena fatua", "experiment": "Herbicidal activity against Avena fatua assessed as killing at 30 g/ha post emergence application measured after 21 days after treatment", "type": "functional, organism-based"}, "Hordeum vulgare [20]": {"test_system": "Hordeum vulgare", "experiment": "Phytotoxicity in Hordeum vulgare (barley) assessed as injury at 0.3 g/ha post emergence application measured after 21 days after treatment", "type": "organism-based", "details": "in vivo, other, 504 h"}, "[21]": {"biological_target": "T1, Protoporphyrinogen oxidase 2 (Spinacia oleracea)", "experiment": "Inhibition of Stellaria media protoporphyrinogen oxidase by post-emergence herbicidal activity assay"}, "Hordeum vulgare [22]": {"test_system": "Hordeum vulgare", "experiment": "Phytotoxicity in Hordeum vulgare (barley) assessed as injury at 1 g/ha post emergence application measured after 21 days after treatment", "type": "organism-based", "details": "in vivo, other, 504 h"}, "Triticum aestivum [23]": {"test_system": "Triticum aestivum", "experiment": "Phytotoxicity in Triticum aestivum (wheat) assessed as injury at 3 g/ha post emergence application measured after 21 days after treatment", "type": "organism-based", "details": "in vivo, other, 504 h"}, "Viola arvensis [24]": {"test_system": "Viola arvensis", "experiment": "Herbicidal activity against Viola arvensis assessed as killing at 3 g/ha post emergence application measured after 21 days after treatment", "type": "functional"}, "Alopecurus myosuroides [25]": {"test_system": "Alopecurus myosuroides", "experiment": "Herbicidal activity against Alopecurus myosuroides assessed as killing at 300 g/ha post emergence application measured after 21 days after treatment", "type": "functional"}, "Avena fatua [26]": {"test_system": "Avena fatua", "experiment": "Herbicidal activity against Avena fatua assessed as killing at 10 g/ha pre emergence application measured after 21 days after treatment", "type": "functional, organism-based"}, "Viola arvensis [27]": {"test_system": "Viola arvensis", "experiment": "Herbicidal activity against Viola arvensis assessed as killing at 10 g/ha post emergence application measured after 21 days after treatment", "type": "functional"}, "Avena fatua [28]": {"test_system": "Avena fatua", "experiment": "Herbicidal activity against Avena fatua assessed as killing at 300 g/ha post emergence application measured after 21 days after treatment", "type": "functional"}, "Veronica hederifolia [29]": {"test_system": "Veronica hederifolia", "experiment": "Herbicidal activity against Veronica hederaefolia assessed as killing at 3 g/ha post emergence application measured after 21 days after treatment", "type": "functional"}, "[30]": {"biological_target": "T2, Protoporphyrinogen oxidase, chloroplastic (Nicotiana tabacum) (UniProt O24163)", "T2 sequence (whole entry)": "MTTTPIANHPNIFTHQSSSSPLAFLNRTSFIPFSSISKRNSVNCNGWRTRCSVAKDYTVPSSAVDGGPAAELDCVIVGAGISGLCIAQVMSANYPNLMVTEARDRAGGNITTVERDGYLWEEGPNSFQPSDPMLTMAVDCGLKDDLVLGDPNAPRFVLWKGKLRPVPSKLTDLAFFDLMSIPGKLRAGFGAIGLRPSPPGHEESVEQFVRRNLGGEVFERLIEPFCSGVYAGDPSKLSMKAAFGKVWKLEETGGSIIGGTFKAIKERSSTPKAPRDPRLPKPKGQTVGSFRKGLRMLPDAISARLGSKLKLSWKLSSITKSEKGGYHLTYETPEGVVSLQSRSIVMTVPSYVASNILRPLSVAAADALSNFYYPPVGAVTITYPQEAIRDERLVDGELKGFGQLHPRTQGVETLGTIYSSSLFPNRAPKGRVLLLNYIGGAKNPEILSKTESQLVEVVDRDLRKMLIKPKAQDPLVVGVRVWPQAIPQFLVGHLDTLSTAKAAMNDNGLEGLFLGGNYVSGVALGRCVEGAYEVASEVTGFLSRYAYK", "experiment": "Inhibition of Veronica hederaefolia protoporphyrinogen oxidase by post-emergence herbicidal activity assay", "details": "Veronica hederifolia"}, "Stellaria media [31]": {"test_system": "Stellaria media", "experiment": "Herbicidal activity against Stellaria media assessed as killing at 300 g/ha post emergence application measured after 21 days after treatment", "type": "functional"}, "Stellaria media [32]": {"test_system": "Stellaria media", "experiment": "Herbicidal activity against Stellaria media assessed as killing at 30 g/ha post emergence application measured after 21 days after treatment", "type": "functional"}, "Alopecurus myosuroides [33]": {"test_system": "Alopecurus myosuroides", "experiment": "Herbicidal activity against Alopecurus myosuroides assessed as killing at 10 g/ha pre emergence application measured after 21 days after treatment", "type": "functional, organism-based"}}, "note": "The source made the active and inactive calls. The calls are words filed in the database; no cut-off is given here.", "data": [{"smiles": "CCOC(=O)COc1cc(-c2nn(C)c(OC(F)F)c2Cl)c(F)cc1Cl", "note": "[PYRAFLUFEN-ETHYL]", "values": [{"measurement": "Activity", "setting": "Viola arvensis [1]", "result": 90, "unit": "%"}, {"measurement": "Ratio", "setting": "Viola arvensis [2]", "result": 10}, {"measurement": "Activity", "setting": "Veronica hederifolia [3]", "result": 100, "unit": "%"}, {"measurement": "Activity", "setting": "Galium aparine [4]", "result": 11, "unit": "%"}, {"measurement": "Activity", "setting": "Alopecurus myosuroides [5]", "result": 11, "unit": "%"}, {"measurement": "Activity", "setting": "Viola arvensis [6]", "result": 50, "unit": "%"}, {"measurement": "Activity", "setting": "Stellaria media [7]", "result": 100, "unit": "%"}, {"measurement": "Activity", "setting": "Avena fatua [8]", "result": 21, "unit": "%"}, {"measurement": "Ratio", "setting": "[9]", "result": 3330}, {"measurement": "Activity", "setting": "[10]", "result": "> 90", "unit": "%"}, {"measurement": "Activity", "setting": "Veronica hederifolia [11]", "result": 40, "unit": "%"}, {"measurement": "Activity", "setting": "Triticum aestivum [12]", "result": "Non-toxic"}, {"measurement": "Activity", "setting": "Alopecurus myosuroides [13]", "result": "inactive"}, {"measurement": "Activity", "setting": "Stellaria media [14]", "result": 100, "unit": "%"}, {"measurement": "Ratio", "setting": "Stellaria media [15]", "result": 166}, {"measurement": "Activity", "setting": "Galium aparine [16]", "result": 21, "unit": "%"}, {"measurement": "Activity", "setting": "Viola arvensis [17]", "result": 21, "unit": "%"}, {"measurement": "Activity", "setting": "Viola arvensis [18]", "result": 40, "unit": "%"}, {"measurement": "Activity", "setting": "Avena fatua [19]", "result": "inactive"}, {"measurement": "Activity", "setting": "Hordeum vulgare [20]", "result": "Non-toxic"}, {"measurement": "ED90", "setting": "[21]", "result": 0.3, "unit": "gAi/ha"}, {"measurement": "Activity", "setting": "Hordeum vulgare [22]", "result": "Non-toxic"}, {"measurement": "Activity", "setting": "Triticum aestivum [23]", "result": 1, "unit": "%"}, {"measurement": "Activity", "setting": "Viola arvensis [24]", "result": 80, "unit": "%"}, {"measurement": "Activity", "setting": "Alopecurus myosuroides [25]", "result": 1, "unit": "%"}, {"measurement": "Activity", "setting": "Avena fatua [26]", "result": "inactive"}, {"measurement": "Activity", "setting": "Viola arvensis [27]", "result": 100, "unit": "%"}, {"measurement": "Activity", "setting": "Avena fatua [28]", "result": 21, "unit": "%"}, {"measurement": "Activity", "setting": "Veronica hederifolia [29]", "result": 100, "unit": "%"}, {"measurement": "ED90", "setting": "[30]", "result": 1, "unit": "gAi/ha"}, {"measurement": "Activity", "setting": "Stellaria media [31]", "result": 100, "unit": "%"}, {"measurement": "Activity", "setting": "Stellaria media [32]", "result": 40, "unit": "%"}, {"measurement": "Activity", "setting": "Alopecurus myosuroides [33]", "result": "inactive"}]}]}
